Test results as given in patent publication US12060366B2, “Bispecific degraders” (DANA-FARBER CANCER INSTITUTE, INC., priority 2018, dated 2024).

Tests used:
Assay type in all cases: cell-based
Settings in all cases: Flip-In 293 cells stably expressing eGFP-bromodomain fusion and mCherry; compound titrated, 5 h incubation; FIG. 1, 2A, 2B
BRD4BD1, BRD4BD2 = experiment: Degradation of eGFP-fused BRD4 bromodomains, eGFP/mCherry reporter flow cytometry
Method: (§1) BRD2BD1, BRD2BD2, BRD3BD1, BRD3BD2, BRD4BD1, and BRD4BD2 were subcloned into mammalian pcDNA5/FRT Vector (Ampicillin and Hygromycin B resistant) modified to contain MCS-eGFP-P2A-mCherry. Stable cell lines expressing eGFP-protein fusion and mCherry reporter were generated using Flip-In 293 system. Plasmid (0.3 μg) and pOG44 (4.7 μg) DNA were preincubated in 100 μL of Opti-MEM™ I (Gibco™, Life Technologies™) media containing 0.05 mg/ml Lipofectamine® 2000 (Invitrogen™) for 20 min and added to Flip-In 293 cells containing 1.9 ml of Dulbecco's Modified Eagle's medium (DMEM) (Gibco™, Life Technologies™) per well in a 6-well plate format (Falcon, 353046). […]
(§2) Cells were seeded at 30-50% confluency in either 24, 48 or 96 well plates (3524, 3548, 3596 respectively, Costar) a day before compound treatment. The inventive compound 3 was titrated and then was incubated with cells for 5 h following trypsinization and resuspension in DMEM, transferred into 96-well plates (353910, Falcon®) and analyzed by flow cytometer (Guava® easyCyte™ HT, Millipore™). Signal from at least 3000 events per well was acquired and the eGFP and mCherry florescence monitored. Data was analyzed using FlowJo® (FlowJo®, LCC). […] The eGFP protein abundance relative to mCherry was then quantified as a ten-fold amplified ratio for each individual cell using the formula: 10× eGFP/mCherry. […]

BRD3BD1, BRD3BD2 = experiment: Degradation of eGFP-fused BRD3 bromodomains, eGFP/mCherry reporter flow cytometry
Method: as §1, §2

BRD2BD1, BRD2BD2 = experiment: Degradation of eGFP-fused BRD2 bromodomains, eGFP/mCherry reporter flow cytometry
Method: as §1, §2

SMILES	degradation of stably expressed bromodomains of BRD4 (GFP/mCherry ratio) (BRD4BD1, BRD4BD2)	degradation of stably expressed bromodomains of BRD3 (GFP/mCherry ratio) (BRD3BD1, BRD3BD2)	degradation of stably expressed bromodomains of BRD2 (GFP/mCherry ratio) (BRD2BD1, BRD2BD2)
COC(=O)C[C@@H]1N=C(c2ccc(Cl)cc2)c2c(sc(C(=O)NCCCCCCCCNc3cccc(C(=O)NC4CCC(=O)NC4=O)n3)c2C)-n2c(C)nnc21 (stereo partly drawn) [compound 1, methyl 2-((6S)-4-(4-chlorophenyl)-2-((8-((6-((2,6-dioxopiperidin-3-yl)carbamoyl)pyridin-2-yl)amino)octyl)carbamoyl)-3,9-dimethyl-6H-thieno[3,2-f][1,2,4]triazolo[4,3-a][1,4]diazepin-6-yl)acetate]	able to efficiently degrade	able to efficiently degrade	able to efficiently degrade
COC(=O)C[C@@H]1N=C(c2ccc(Cl)cc2)c2c(sc(C(=O)NCCCCCNc3cccnc3C(=O)NC3CCC(=O)NC3=O)c2C)-n2c(C)nnc21 (stereo partly drawn) [compound 3, methyl 2-((6S)-4-(4-chlorophenyl)-2-((5-((2-((2,6-dioxopiperidin-3-yl)carbamoyl)pyridin-3-yl)amino)pentyl)carbamoyl)-3,9-dimethyl-6H-thieno[3,2-f][1,2,4]triazolo[4,3-a][1,4]diazepin-6-yl)acetate]	only the first bromodomain of BRD4 is degraded		
